Row | SMILES | melting point [°C]
1 | CC(C)Cn1c(=O)n(C)c(=O)c2cc(C(O)c3ccccc3)sc21 (stereo not shown) [Example 14, 6-[(1-Hydroxy-1-phenyl)methyl]-3-methyl-1-(2-methylpropyl)thieno[2,3-d]pyrimidine-2,4(1H,3H)-dione] | 140 to 142
2 | CC(C)Cn1c(=O)n(C)c(=O)c2c(Sc3ccc([N+](=O)[O-])cn3)c(Cc3cccc4ccccc34)sc21 [Example 37, 3-Methyl-1-(2-methylpropyl)-6-(1-naphthalenylmethyl)-5-[(5-nitropyridin-2-yl)thio]thieno[2,3-d]pyrimidine-2,4-(1H, 3H)-dione] | 200 to 201
3 | CC(C)Cn1c(=O)n(C)c(=O)c2c(Sc3ccccn3)c(Cc3cccc4ccccc34)sc21 [Example 5, 3-Methyl-1-(2-methylpropyl)-6-(1-naphthalenylmethyl)-5-[(2-pyridinyl)thio]thieno[2,3-d]pyrimidine-2,4(1H,3H)-dione] | 148 to 149
4 | CC(C)Cn1c(=O)n(C)c(=O)c2c(Sc3ccc(N)cn3)c(Cc3cccc4ccccc34)sc21 [Example 87, 5-[(5-Amino-2-pyridinyl)thio]-3-methyl-1-(2-methylpropyl)-6-(1-naphthalenylmethyl)thieno[2,3-d]pyrimidine-2,4(1H,3H)-dione] | 208 to 209
5 | CC(C)Cn1c(=O)n(C)c(=O)c2c(Sc3ccc(N)cc3)c(Cc3cccc4ccccc34)sc21 [Example 36, 5-[(4-Aminophenyl)thio]-3-methyl-1-(2-methylpropyl)-6-(1-naphthalenylmethyl)thieno[2,3-d]pyrimidine-2,4-(1H, 3H)-dione] | 177 to 178
6 | CC(C)Cn1c(=O)[nH]c(=O)c2cc(Cc3cccc4ccccc34)sc21 [Example 3, 1-(2-Methylpropyl)-6-(1-naphthalenylmethyl)thieno[2,3-d]pyrimidine-2,4(1H,3H)-dione] | 189 to 190
7 | CC(=O)NCCCSc1c(Cc2cccc3ccccc23)sc2c1c(=O)n(C)c(=O)n2CC(C)C [Example 41] | 114 to 117
8 | CC(C)Cn1c(=O)n(C)c(=O)c2cc(C(O)c3ccc([N+](=O)[O-])cc3)sc21 (stereo not shown) [Example 90, 6-[1-Hydroxy-(4-nitrophenyl)methyl]-3-methyl-1-(2-methylpropyl)thieno[2,3-d]pyrimidin-2,4(1H,3H)-dione] | 127
9 | CC(C)Cn1c(=O)n(C)c(=O)c2c(SCCCN=[N+]=[N-])c(Cc3cccc4ccccc34)sc21 [Example 39, 5-[(3-Azidopropyl)thio]-3-methyl-1-(2-methylpropyl)-6-(1-naphthalenylmethyl)thieno[2,3-d]pyrimidine-2,4(1H,3H)-dione] | 94 to 96
10 | CC(C)Cn1c(=O)n(C)c(=O)c2c(NC(=O)OCCO)c(Cc3cccc4ccccc34)sc21 [Example 49, 2-Hydroxyethyl [1,2,3,4-tetrahydro-3-methyl-1-(2-methylpropyl)-6-(1-naphthalenylmethyl)-2,4-dioxothieno[2,3-d]pyrimidin-5-yl]carbamate] | 201 to 202
11 | CC(C)Cn1c(=O)n(C)c(=O)c2c(C(=O)NCCO)c(Cc3cccc4ccccc34)sc21 [Example 16, 1,2,3,4-Tetrahydro-N-(2-hydroxyethyl)-3-methyl-1-(2-methylpropyl)-6-(1-naphthalenylmethyl)-2,4-dioxothieno[2,3-d]pyrimidine-5-carboxamide] | 193 to 194
12 | COC(=O)CCCSc1c(Cc2cccc3ccccc23)sc2c1c(=O)n(C)c(=O)n2CC(C)C [Example 7, Methyl 4-[(1,2,3,4-tetrahydro-3-methyl-1-(2-methylpropyl)-6-(1-naphthalenylmethyl)-2,4-dioxothieno[2,3-d]pyrimidin-5-y)thio]butanoate] | 111 to 112
13 | CC(C)Cn1c(=O)n(C)c(=O)c2c(Sc3cccc(O)c3)c(Cc3cccc4ccccc34)sc21 [Example 27, 5-[(3-Hydroxyphenyl)thio]-3-methyl-1-(2-methylpropyl)-6-(1-naphthalenylmethyl)thieno[2,3-d]pyrimidine-2,4-(1H,3H)-dione] | 200 to 201
14 | CC(C)Cn1c(=O)n(C)c(=O)c2c(S(=O)(=O)c3cccc(O)c3)c(Cc3cccc4ccccc34)sc21 [Example 29] | 209 to 210
15 | CC(C)Cn1c(=O)n(C)c(=O)c2c(NC(=O)N(C)CCO)c(Cc3cccc4ccccc34)sc21 [Example 50] | 151 to 152
16 | CC(C)Cn1c(=O)n(C)c(=O)c2c(S(=O)(=O)CCCC(=O)O)c(Cc3cccc4ccccc34)sc21 [Example 11, 4-[(1,2,3,4-Tetrahydro-3-methyl-1-(2-methylpropyl)-6-(1-naphthalenylmethyl)-2,4-dioxothieno[2,3-d]pyrimidin-5-yl)sulfonyl]butanoic acid] | 174 to 181
17 | CC(=O)Nc1cccc(Sc2c(Cc3cccc4ccccc34)sc3c2c(=O)n(C)c(=O)n3CC(C)C)c1 [Example 34, 5-[(3-Acetamidophenyl)thio]-3-methyl-1-(2-methylpropyl)-6-(1-naphthalenylmethyl)thieno[2,3-d]pyrimidine-2,4-(1H, 3H)-dione] | 173 to 174
18 | CC(=O)Nc1cccc(C(=O)Nc2ccc(Cc3cc4c(=O)n(C)c(=O)n(CC(C)C)c4s3)cc2)c1 [Example 94] | 230
19 | CC(C)Cn1c(=O)n(C)c(=O)c2c(Sc3cccc(N)c3)c(Cc3cccc4ccccc34)sc21 [Example 31, 5-[(3-Aminophenyl)thio]-3-methyl-1-(2-methylpropyl)-6-(1-naphthalenylmethyl)-thieno[2,3-d]pyrimidine-2,4-(1H, 3H)-dione] | 149 to 150

More lines, now with the values ahead:

Row | melting point [°C] | SMILES
20 | 162 to 163 | CC(C)Cn1c(=O)n(C)c(=O)c2c(SCCC(C)O)c(Cc3cccc4ccccc34)sc21 (racemic) [Example 85, (±)-5-[(3-Hydroxybutyl)thio]-3-methyl-1-(2-methylpropyl)-6-(1-naphthalenylmethyl)thieno2,3-d]pyrimidine-2,4(1H,3H)-dione]
21 | 218 to 219 | CC(C)Cn1c(=O)n(C)c(=O)c2c(C(=O)NCC(=O)O)c(Cc3cccc4ccccc34)sc21 [Example 21, 2-{[1,2,3,4-Tetrahydro-3-methyl-1-(2-methylpropyl)-6-(1-naphthalenylmethyl)-2,4-dioxothieno[2,3-d]pyrimidin-5-yl]carboxamido}acetic acid]
22 | 122 to 124 | COC(=O)CCCS(=O)(=O)c1c(Cc2cccc3ccccc23)sc2c1c(=O)n(C)c(=O)n2CC(C)C [Example 10, Methyl 4-[(1,2,3,4-tetrahydro-3-methyl-1-(2-methylpropyl)-6-(1-naphthalenylmethyl)-2,4-dioxothieno[2,3-d]pyrimidin-5-yl)sulfonyl]butanoate]
23 | 76 to 78 | CC(C)Cn1c(=O)n(C)c(=O)c2cc(Cc3cccc(F)c3)sc21 [Example 52, 6-[(3-Fluorophenyl)methyl]-3-methyl-1-(2-methylpropyl)thieno[2,3-d]pyrimidine-2,4-(1H, 3H)-dione]
24 | 216 to 217 | CC(C)Cn1c(=O)n(C)c(=O)c2c(Sc3cccc(N(S(C)(=O)=O)S(C)(=O)=O)c3)c(Cc3cccc4ccccc34)sc21 [Example 32, 5-{[3-{(Bis-methanesulfonyl)amino}phenyl]thio}-3-methyl-1-(2-methylpropyl)-6-(1-naphthalenylmethy)theino[2,3d]pyrimidine-2,4(1H, 3H)-dione]
25 | 104 | CC(C)Cn1c(=O)n(C)c(=O)c2cc(Cc3ccc(N)cc3)sc21 [Example 92, 6-(4-Aminophenylmethyl)-3-methyl-1-(2-methylpropyl)thieno[2,3-d]pyrimidine-2,4-(1H, 3H)-dione]
26 | 144 to 146 | CC(C)Cn1c(=O)n(C)c(=O)c2c(C(=O)N(C)C)c(Cc3ccccc3)sc21 [Example 89, 1,2,3,4-Tetrahydro-3,N,N-trimethyl-1-(2-methylpropyl)-6-phenylmethy-2,4-dioxothieno[2,3-d]pyrimidine-5-carboxamide]
27 | 91 to 93 | CC(C)n1c(=O)n(C)c(=O)c2cc(Cc3ccccc3)sc21 [Example 13, 3-Methyl-1-(1-methylethyl)-6-(phenylmethyl)thieno[2,3-d]pyrimidine-2,4(1H,3H)-dione]
28 | 72 to 73 | CC(C)Cn1c(=O)n(C)c(=O)c2cc(Cc3ccccc3)sc21 [Example 12, 6-Benzyl-3-methyl-1-(2-methylpropyl)thieno[2,3-d]pyrimidine-2,4(1H,3H)-dione]
29 | 126 to 128 | CC(C)Cn1c(=O)n(C)c(=O)c2c(SCC(C)O)c(Cc3cccc4ccccc34)sc21 (racemic) [Example 15, (±) 5-[(2-Hydroxypropyl)thio]-3-methyl-1-(2-methylpropyl)-6-(1-naphthalenylmethyl)thieno[2,3-d]pyrimidine-2,4(1H,3H)-dione]
30 | 183 | CC(C)Cn1c(=O)n(C)c(=O)c2cc(Cc3ccccc3C(N)=O)sc21 [Example 82, 2-[(1,2,3,4-tetrahydro-3-methyl-1-(2-methylpropyl)-2,4-dioxothieno[2,3-d]pyrimidin-6-yl)methyl]benzamido]
31 | 172 to 173 | CC(C)Cn1c(=O)n(C)c(=O)c2c(SCCCC(=O)O)c(Cc3cccc4ccccc34)sc21 [Example 8, 4-[(1,2,3,4-Tetrahydro-3-methyl-1-(2-methylpropyl)-6-(1-naphthalenylmethyl)-2,4-dioxothieno[2,3-d]pyrimidin-5-yl)thio]butanoic acid]
32 | 111 | C=C(C)Cn1c(=O)n(C)c(=O)c2cc(Cc3ccc(OC)cc3)sc21 [Example 2, 6-(4-Methoxyphenylmethyl)-3-methyl-1-(2-methyl-2-propenyl)thieno[2,3-d]pyrimidine-2,4(1H,3H)-dione]
33 | 152 | CC(C)Cn1c(=O)n(C)c(=O)c2cc(C3OC(=N)c4ccccc43)sc21 (stereo not shown) [Example 81, 6-(3-Imino-1,3-dihydro-benzo[c]furan-1-yl)-3-methyl-1-(2-methylpropyl)thieno[2,3-d]pyrimidine-2,4(1H, 3H)-dione]
34 | 167 to 168 | COC(=O)Nc1cccc(Sc2c(Cc3cccc4ccccc34)sc3c2c(=O)n(C)c(=O)n3CC(C)C)c1 [Example 33]

From patent US6342502B1, “Thieno[2,3-d]pyrimidine diones and their use in the treatment of reversible obstructive airways diseases” (AstraZeneca AB, priority 1997, dated 2002)
